Patent US20050260683A1, “Methods for diagnosing and treating pre-term labor” (University of Hawaii, priority 2002, published 2005)
Entries after “also recorded” stand apart in the source; their conditions may differ. Read-outs that look alike come from different tables or passages of the source.

Key:
[1] = system: PBEF gene expression; conditions: Ognjanovic et al., cited from earlier work
[2] = system: PBEF gene expression in WISH cells; experiment: PBEF gene expression in IL-1β-stimulated WISH cells with inhibitors, real-time PCR; assay type: cell-based, human; conditions: IL-1β 1 ng/ml; for effect on IL-1β-induced up-regulation of PBEF: inhibitor over a range of dilutions
Method: (§1) Thus, the human anmiotic epithelial-like cell line (WISH) was stimultated by addition of IL-1β (1 ng/ml) or by stretching (20%). In order to show any inhibitory effects on the expression of PBEF, a panel of inhibitors (SN50, Curcumin and PDTC) were added over a range of dilutions to both systems. Gene expression was quantitated by real-time PCR and normalized to 18 s.

[3] = system: IL-6; conditions: Keelan et al.; cited from earlier work
[4] = system: IL-8; conditions: Keelan et al.; Laham et al.; cited from earlier work
[5] = system: NF-κB; experiment: NF-κB translocation in WISH cells, anti-p65 immunolabeling; assay type: cell-based, human; conditions: after addition of IL-1β
Method: as §1
Peak translocation of NF-κB from the cytoplasm to the nucleus occurred one hour after addition of IL-1β and was clearly seen by immunolabeling with an antibody (anti-p65) to one of the subunits of NF-κB. Increased PBEF gene expression also resulted from IL-1β stimulation.

Molecule: IL-8: cytokine interleukin-8
- PBEF gene expression / transcription [1]: no such effect

Molecule: COc1cc(/C=C/C(=O)CC(=O)/C=C/c2ccc(O)c(OC)c2)ccc1O [Curcumin]
- effect on IL-1β-induced up-regulation of PBEF [2]: prevented the up-regulation of PBEF to varying degrees

Molecule: IL-6: cytokine interleukin-6
- PBEF gene expression / transcription [1]: induced

Molecule: TNF-α
- PBEF gene expression / transcription [1]: induced
- PBEF gene expression / transcription ([1]; listed as TNF-A): stimulate
- IL-6 transcription [3]: stimulate
- IL-8 transcription [4]: stimulate

Molecule: S=C(S)N1CCCC1 [PDTC]
- effect on IL-1β-induced up-regulation of PBEF [2]: prevented the up-regulation of PBEF to varying degrees

Molecule: IL-1β: proinflammatory cytokine interleukin-1-beta
- PBEF gene expression after stimulation [2]: Increased
- time of peak translocation of NF-κB from the cytoplasm to the nucleus [5]: one hour
- PBEF gene expression / transcription [1]: stimulate; also recorded: induced
- IL-6 transcription [3]: stimulate
- IL-8 transcription [4]: stimulate
